# Experimental data as given in article PMC5776727 (Bioorganic & medicinal chemistry letters, 2015).
# Target: CXCR4 (Homo sapiens, UniProt P61073)
# Experiment: inhibition of CXCL12
# Format: cell-based
# Details: read-out: SDF-1 Ca2+ Flux CEM-1 IC50; SDF-1 induced calcium release; duplicate
# Sequence of CXCR4 (P61073 whole entry): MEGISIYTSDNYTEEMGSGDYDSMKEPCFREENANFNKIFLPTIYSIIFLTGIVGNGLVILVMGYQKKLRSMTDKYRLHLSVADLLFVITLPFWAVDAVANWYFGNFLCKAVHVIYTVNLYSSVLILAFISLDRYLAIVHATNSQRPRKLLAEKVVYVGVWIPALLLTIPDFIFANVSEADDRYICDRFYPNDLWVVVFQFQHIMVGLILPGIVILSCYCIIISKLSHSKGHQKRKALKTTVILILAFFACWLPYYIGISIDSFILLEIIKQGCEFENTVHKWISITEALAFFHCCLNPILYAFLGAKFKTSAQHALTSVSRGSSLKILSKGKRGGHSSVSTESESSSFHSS
structure (smiles),measurement,value
NCCCCN(C[C@H]1CN(C(=O)Nc2ccccc2)CCN1)[C@H]1CCCc2cccnc21 [Compound 57a],IC50,21 µM
